Tests used:
[1] = test system: reactive oxygen species in the bladder cells; experiment: reactive oxygen species count in the bladder (in vivo); parameters: species or system Wistar rats; details: PPD alone i.p. for 4 weeks, FIG. 9 and 10
Procedure: (§1) In the current embodiment, 24 adult female Wistar rats were adopted as the experimental animals in the animal experiments and were randomly divided into four groups to be treated with different intraperitoneal injections. Referring to Table 1, the four groups are as follows: 1) the control group: 1 mL/day saline solution for 4 weeks; 2) the first experimental group: PPD (60 […]) for 4 weeks; 3) the second group: PPD ([…]) for 4 weeks and a drug (1.5 mg/kg/day) prepared from WCT003 for the last 2 weeks of; 4) the third experimental group: PPD (60 μg/kg/day) for 4 weeks and a drug (1.5 mg/kg/day) prepared from WCT006 for the last 2 weeks.
FIG. 10 show the analytical data of the reactive oxygen species count in vivo for each group of rats. It could be seen from FIG. 9 and FIG. 10 that the reactive oxygen species count in the bladder cells of the first experimental group of rats is much higher than that of the control group.

adult female Wistar rats = experiment: metabolic cage sample data; type: in vivo
Procedure: as §1
Referring to Table 2, which lists the sample data collected from the rats of the control group and the first experimental group where were placed in the metabolic cage: […]

reactive oxygen species = experiment: luminol and lucigenin chemiluminescence of blood or urine samples (in vitro); parameters: species or system Wistar rats; details: PPD i.p. for 4 weeks
Procedure: To determine the effect of the drug prepared from the nickel complex WCt003 and WCt006 on eliminating reactive oxygen species, a luminol and lucigenin chemiluminescence (CL) method was utilized. The method includes the following steps: 0.2 ml sample of blood or urine was mixed with 0.5 ml of 1 mmol/L lucigenin or 0.2 mmol/L luminol, and then the mixture was analyzed with a chemiluminescence analysis system, wherein, the recorded signals were corresponding to the hydrogen peroxide (H2O2) and hypochlorous acid (HOCl) count in the luminol method, while the recorded signals were corresponding to the superoxide anion (O2^−) count in the lucigenin method.

[2] = test system: bladder tissue of adult female Wistar rats; experiment: bladder tissue slices and perfusion unit after para-phenylenediamine; type: in vivo; details: PPD i.p. for 4 weeks vs control group
Procedure: as §1
It could be known from the experiment data that para-phenylenediamine induces inflammatory response and ischemia in the bladders of the rats in the first experimental group.

[3] = test system: bladder of adult female Wistar rats; experiment: intravesical pressure measurement in para-phenylenediamine-treated rats; type: in vivo
Procedure: as §1
Then, each group of the rats were anesthetized with urethane (1.2 g/kg) via percutaneously injection, and a catheter was placed in a left femoral artery of each of the rats to measure arterial pressure (ABP). Meanwhile, intravesical pressure of the rats were also measured to obtain the parameters such as bladder intercontraction interval (ICI), urination time (MT), maximum urination pressure (MVP), contraction amplitude (A=MVP-BP), urination pressure threshold (PT), etc., as shown in FIG. 3 to FIG. 5.

[4] = first experimental group: PPD i.p. for 4 weeks
[5] = first experimental group: PPD alone i.p. for 4 weeks

Nc1ccc(N)cc1 [para-phenylenediamine]
reactive oxygen species count in the bladder cells vs control group [1]: much higher
stool vs control group (adult female Wistar rats; PPD i.p. for 4 weeks, in words): more
urinary frequency vs control group (adult female Wistar rats; PPD i.p. for 4 weeks, in words): more frequent
urine vs control group (adult female Wistar rats; PPD i.p. for 4 weeks, in words): more
Body Weight (adult female Wistar rats; [4]): 277.8 ± 3.8 g
Food (adult female Wistar rats; [4]): 22.9 ± 4.4 g
Stool (adult female Wistar rats; [4]): 35.7 ± 8.1 g
Urinary frequency (24 hours) (adult female Wistar rats; [4]): 53.1 ± 13.3
Urine (adult female Wistar rats; [4]): 32.7 ± 7.5 mg
Water intake (adult female Wistar rats; [4]): 57.7 ± 7.2 mL
O2− count in the blood sample vs control group (reactive oxygen species; blood, lucigenin, FIG. 8): higher
H2O2 and HOCl counts in the blood sample vs control group (reactive oxygen species; blood, luminol, FIG. 8): significantly higher
reactive oxygen species count in urine samples vs control group (reactive oxygen species; urine, FIG. 7): no significant difference
mast cell in the bladder ([2]; FIG. 1): significant increase
neutrophil infiltration in the bladder tissue ([2]; FIG. 1): have neutrophil infiltration in the bladder tissue
perfusion unit ([2]; FIG. 2): reduced
bladder intercontraction interval vs control group ([3]; PPD i.p., in words, Table 3 and FIG. 6): significantly shorter
A (contraction amplitude) [3, 5]: 20.3 ± 0.9 mmHg
ICI (bladder intercontraction interval) [3, 5]: 35.8 ± 6.0 s
MVP (maximum urination pressure) [3, 5]: 30.6 ± 0.9 mmHg

Source: US20190343874A1, “USE OF NICKEL COMPLEX IN PREPARING DRUG FOR RELIEVING INFLAMMATION” (NATIONAL TAIWAN NORMAL UNIVERSITY, priority 2018, published 2019)
